How the values were obtained:
[1] = inventors' finding on antihistaminic effect and sedation of D-setastine hydrochloride; conditions: result in words
guinea pigs [2] = experiment: histamine-induced death of guinea pigs after oral dosing of test sample; format: in vivo, guinea pig; conditions: for Number of death: gavage for two days, then histamine 20 mg/kg, deaths within 24 hours, + = died next day; for Death Percentage: histamine 20 mg/kg; for protective effect on histamine-induced death for guinea pigs: 0.16-0.68 mg/kg, result in words
Protocol: 1. Sample name: KL-001 (R-setastine hydrochloride prepared in embodiment 6), KL-002 (L-setastine hydrochloride prepared from embodiment 2, 3, 4, 5, or 6), and KL-003 (setastine hydrochloride racemic) provided by Anhui Kelong medicine research institute).
2. The specifications of content: There are three groups of each sample, which is high, medium, and small-dose group, wherein dosages for high, medium, small-dose group are 0.68 mg/kg, 0.32 mg/kg, and 0.16 mg/kg respectively. The dosages are considerable 20, 10, and 5 times comparing with the clinical dosages.
3. The preparation method for test sample: For the KL-001 sample, 84 ml of distilled water is added to KL-001 sample so as to obtain a large-dose group of KL-001, which is according to the gavage feeding volume of guinea pigs, which is 0.1 ml/100 g, which is the same as 0.68 mg/kg; and medium and small-does group of KL-001 are diluted by the high-dose group of KL-001 for double and quadruple times. For the KL-002 sample, 125 ml of distilled water is added to KL-002 sample to obtain a large-dose group of KL-002, which is according to the gavage feeding volume of guinea pigs, which is 0.1 ml/100 g, which is the same as 0.68 mg/kg; and medium and small-does group are diluted by the high-dose group for double and quadruple times. For KL-003 sample, 75 ml of distilled water is added to KL-003 sample so as to obtain a large-dose group of KL-003, which is according to the gavage feeding volume of guinea pigs, which is 0.1 ml/100 g, which is the same as 0.68 mg/kg; and medium and small-does group of KL-003 are diluted by the high-dose group of Kl-003 for double and quadruple times.
112 guinea pigs are fed in the feeding environment (to adapt in the environment) for three days, and are randomly divided into 10 groups, namely a control group, a high-dose group of KL-001, a medium-dose group of KL-001, a small-dose group of KL-001, a high-dose group of KL-002, a medium-dose group of KL-002, a small-dose group of KL-002, a high-dose group of KL-003, a medium-dose group of KL-003, and a small-dose group of KL-003. The dosage for high-dose group of Kl-001, KL-002, and Kl-003 is 0.68 mg/kg, and the dosage for medium-dose group of Kl-001, KL-002, and Kl-003 is 0.32 mg/kg, and the dosage for small-dose group of Kl-001, KL-002, and Kl-003 is 0.16 mg/kg, which are 20, 10, 5 times respectively comparing with the clinical dose. Each guinea pig from each group is fed by corresponding amounts of test sample for two days, which is according to the amount of 0.1 ml/100 g. Finally, each guinea pig is fed with lethal dose of histamine, which is 20 mg/kg after the last injection of test sample, and then observing the number of deaths of guinea pigs within 24 hours.

patients = conditions: racemic drug, China market; cited from earlier work
guinea pigs [3] = conditions: background statement; cited from earlier work

In the case of `CC(OCCN1CCCCCC1)(c1ccccc1)c1ccc(Cl)cc1.Cl` (stereo not drawn), the antihistaminic effect [1] is reported as “no antihistaminic effect”, the “side effects of sedation” value [1] is reported as “can produce side effects of sedation” and the Number of death (guinea pigs [2]; 0.16 mg/kg (small dose)) is reported as 11. For the same compound, the “Death Percentage” value (guinea pigs [2]; 0.16 mg/kg (small dose)) was 100%, the Number of death (guinea pigs [2]; 0.32 mg/kg (medium dose)) was 11 and the “Death Percentage” value (guinea pigs [2]; 0.32 mg/kg (medium dose)) was 100%. For the same compound, the Number of death (guinea pigs [2]; 0.68 mg/kg (high dose)) was 11, the “Death Percentage” value (guinea pigs [2]; 0.68 mg/kg (high dose)) was 100% and the “protective effect on histamine-induced death for guinea pigs” value (from here on “protective effect … for guinea pigs”) (guinea pigs [2]) was “doesn't has the protective effect”. The “protective effect … for guinea pigs” value (guinea pigs [2]; listed as D-setastine hydrochloride) was “no protective effect” and the “protective effect … for guinea pigs” value (guinea pigs [2]; listed as Kl-001) was “doesn't has protective effect”.

In the case of `CC(OCCN1CCCCCC1)(c1ccccc1)c1ccc(Cl)cc1` (racemic) [KL-003], the “sedative side effects in clinical use” value (patients) is given as “stronger sedative side effects”, the histamine-induced bronchial spasms (guinea pigs [3]) is given as “inhibit” and the Number of death (guinea pigs [2]; 0.16 mg/kg (small dose)) is given as 6 + 2. For the same compound, the “Death Percentage” value (guinea pigs [2]; 0.16 mg/kg (small dose)) was 66%, the Number of death (guinea pigs [2]; 0.32 mg/kg (medium dose)) was 3 + 1 and the “Death Percentage” value (guinea pigs [2]; 0.32 mg/kg (medium dose)) was 36%. For the same compound, the Number of death (guinea pigs [2]; 0.68 mg/kg (high dose)) was 1 + 1, the “Death Percentage” value (guinea pigs [2]; 0.68 mg/kg (high dose)) was 16% and the “protective effect … for guinea pigs” value (guinea pigs [2]) was “significant protective effect”. For the same compound, the “protective effect … for guinea pigs” value (guinea pigs [2]; listed as setastine hydrochloride racemic) was “have protective effects”.

For `C[C@@](OCCN1CCCCCC1)(c1ccccc1)c1ccc(Cl)cc1` [KL-002], the Number of death (guinea pigs [2]; 0.16 mg/kg (small dose)) was 4 + 1, the “Death Percentage” value (guinea pigs [2]; 0.16 mg/kg (small dose)) was 45% and the Number of death (guinea pigs [2]; 0.32 mg/kg (medium dose)) was 2. The “Death Percentage” value (guinea pigs [2]; 0.32 mg/kg (medium dose)) was 18%, the Number of death (guinea pigs [2]; 0.68 mg/kg (high dose)) was 0 and the “Death Percentage” value (guinea pigs [2]; 0.68 mg/kg (high dose)) was 0%. The “protective effect … for guinea pigs” value (guinea pigs [2]) was “significant protective effect”, the “protective effect … for guinea pigs” value (guinea pigs [2]; listed as L-setastine hydrochloride) was “have protective effects” and the “protective effect compared with setastine hydrochloride racemic” value (guinea pigs [2]; comparison in words) was “stronger”.

— patent US9434705B2, “L-setastine hydrochloride and preparation method thereof” (ANHUI QINGYUN PHARMACEUTICAL & CHEMICAL CO., LTD., priority 2011, dated 2016)
